This is an account of results in article PMC7324608 (Scientific Reports, 2020).

The format of data set [1] is physicochemical. To be noted: 50 mM HEPES pH 7.4, 3 h, 37 °C, absence of protease and presence of HpHtrA SA mutant. On the procedure:
(§1) Fig. S4. MS analysis of the HpHtrA-mediated cleavage products of 2-Abz-AQRVAF-Y(3-NO2)-NH2. The […]
(§2) ratio in 50 mM HEPES buffer (pH 7.4) for 3 h at 37°C. The samples were desalted by using ZipTip® pipette tips (Merck Millipore) and measured by MALDI -TOF-MS (positive mode). The peptide was found to be stable in the buffer in the absence of the protease as well as in the presence of the HpHtrA […]
(§3) (1 picture or pasted object on this page, not shown here)

A further data set has as its target T1, HpHtrA wt (Helicobacter pylori, UniProt G2J5T2).
T1 sequence (G2J5T2 18-475): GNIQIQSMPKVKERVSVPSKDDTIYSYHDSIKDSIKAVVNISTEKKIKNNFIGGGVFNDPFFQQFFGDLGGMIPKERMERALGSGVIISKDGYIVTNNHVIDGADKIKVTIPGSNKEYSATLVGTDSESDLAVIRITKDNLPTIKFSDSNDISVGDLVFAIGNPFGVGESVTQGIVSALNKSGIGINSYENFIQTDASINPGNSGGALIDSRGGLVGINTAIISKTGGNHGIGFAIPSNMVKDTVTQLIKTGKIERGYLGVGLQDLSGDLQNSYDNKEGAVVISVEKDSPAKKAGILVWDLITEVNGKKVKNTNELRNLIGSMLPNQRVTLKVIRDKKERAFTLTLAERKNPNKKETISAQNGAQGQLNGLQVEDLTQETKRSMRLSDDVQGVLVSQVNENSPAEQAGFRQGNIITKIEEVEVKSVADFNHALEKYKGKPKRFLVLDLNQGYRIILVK
The data set can be described thus: MS analysis of HpHtrA-mediated cleavage of the FRET peptide. In kind it is biochemical. Also noted: (HpHtrA, G18-K475, UniProt G2J5T2); GST (N, cleaved yes); made in house; host or cells: E. coli BL21. Conditions: peptide:HpHtrA 20:1, 50 mM HEPES pH 7.4, 3 h, 37 °C, MALDI-TOF-MS. On the procedure:
as §1, §2, §3

The target of data set [2] is T2, HpHtrA (Helicobacter pylori, UniProt G2J5T2).
T2 construct: (HpHtrA, G18-K475, UniProt G2J5T2); GST (N, cleaved yes); made in house; host or cells: E. coli BL21
T2 sequence (G2J5T2 18-475): T1 sequence (G2J5T2 18-475)
Put plainly: in vitro E-cadherin (hCdh1) cleavage by HpHtrA (Western blot). Type of data set: biochemical. Conditions: 1 mM; 50 ng hCdh1, 250 ng HpHtrA, 16 h, 37 °C. From the text:
(§4) The proteins were separated by SDS-PAGE and visualized by staining with Coomassie Brilliant Blue G250 (Lactan, Vienna, Austria). […] Proteins were separated using SDS-PAGE and blotted onto a nitrocellulose membrane. Human Cdh1 was detected by an antibody recognizing the EC5 domain of hCdh1 (Abcam, Cambridge, UK) and a polyclonal serum was used to detect HpHtrA[22]. Independent experiments were repeated at least three times.

Data set [3] has as its target T2, HpHtrA. Put plainly: in vitro casein cleavage by HpHtrA (Coomassie SDS-PAGE). Type of data set: biochemical. Conditions: 1 mM; 10 µg casein, 250 ng HpHtrA, 16 h, 37 °C.
Text: as §4

Data set [4] deals with the molecule itself. The data set can be described thus: casein zymography + other: non-reducing SDS-PAGE; recombinant HpHtrA proteins in non-reducing sample buffer without beta-mercaptoethanol; SDS-PAGE with 0.1% casein, renatured and developed 24 h at 37 °C, or Coomassie-stained non-reducing SDS-PAGE for detection of multimers.
Data set [5] concerns the molecule itself. The data set can be described thus: non-reducing SDS-PAGE; HpHtrA wt untreated or with increasing concentrations of ZnCl2 or CuCl2; Coomassie-stained SDS-PAGE under non-reducing conditions.

Changes are numbered by the printed parent chain. In names and notes the source's numbering stands. Where no end group is shown, it is not given here. [ ]: non-standard residue; d: D form. Tyr(3-NO2) = N[C@@H](Cc1ccc(O)c([N+](=O)[O-])c1)C(=O)O; 2Abz = Nc1ccccc1C(=O)O

As to “2-Abz-AQRVAF-Y(3-NO2)-NH2 ([2Abz]AQRVAF[Tyr(3-NO2)]-NH2; N-terminus assumed; SMILES CC(C)[C@H](NC(=O)[C@H](CCCNC(=N)N)NC(=O)[C@H](CCC(N)=O)NC(=O)[C@H](C)NC(=O)c1ccccc1N)C(=O)N[C@@H](C)C(=O)N[C@@H](Cc1ccccc1)C(=O)N[C@@H](Cc1ccc(O)c([N+](=O)[O-])c1)C(N)=O) [FRET substrate peptide AQRVAF with N-terminal 2-aminobenzoyl fluorophore and C-terminal 3-nitro-tyrosine quencher]”, the “stability of the peptide” value in data set [1] is listed as “stable”. The “cleavage of the peptide by HpHtrA” value with HpHtrA wt is given as “fully cleaved, preferentially after Val”.

For the molecule `[Ca+2].[Cl-].[Cl-]` [Ca^++, CaCl2], the “effect on HpHtrA-mediated hCdh1 cleavage/fragmentation” value at HpHtrA [2] is given as “significantly blocked”.

For `O=C(O)CN(CCN(CC(=O)O)CC(=O)O)CC(=O)O` [EDTA, ethylenediaminetetraacetic acid, reference compound], at HpHtrA [3], the “effect on HtrA-mediated casein degradation” value is reported as “did not alter”. Further, the “effect on HpHtrA-mediated hCdh1 cleavage/fragmentation” value on HpHtrA [2] was “considerably enhanced”.

For `O=C(O)CN(CCOCCOCCN(CC(=O)O)CC(=O)O)CC(=O)O` [EGTA, ethylene glycol-bis(β-aminoethyl ether)-N,N,N′,N′-tetraacetic acid, reference compound], the “effect on HtrA-mediated casein degradation” value at HpHtrA [3] is reported as “did not alter”. Moreover, the “effect on HpHtrA-mediated hCdh1 cleavage/fragmentation” value at HpHtrA [2] is on record as “considerably enhanced”.

B1: HpHtrA S164A (enzyme)
chain: T1 sequence (G2J5T2 18-475) with S147A
Regarding B1, in data set [4], the binding result is “binds”.

B2: HtrA wild type (wt) from the H. pylori strain Hp26695 (enzyme)
chain: T1 sequence (G2J5T2 18-475)
notes: also called HpHtrA; HpHtrA wt
As for B2, the binding result in data set [5] was “binds”.
